Values belong to the compound of their own block, whether it stands above or below them. Active and inactive are the calls of the source. No cut-off for these calls is given here.
Key:
DNA [1] = test: Binding affinity to calf thymus DNA; assay type: nucleic-acid assay; details: Bos taurus
Escherichia coli [2] = test: Induction of Escherichia coli pBR322 DNA cleavage assessed as conversion of supercoiled form into open circular form after 5 hrs by agarose gel electrophoresis in presence of Cu2+
Escherichia coli [3] = test: Induction of Escherichia coli pBR322 DNA cleavage at 0.06 mM after 5 hrs by agarose gel electrophoresis in presence of Cu2+ and KI
Escherichia coli [4] = test: Induction of Escherichia coli pBR322 DNA cleavage at 0.06 mM after 5 hrs by agarose gel electrophoresis in presence of Cu2+ and t-BuOH
Escherichia coli [5] = test: Induction of Escherichia coli pBR322 DNA cleavage at 0.06 mM after 5 hrs by agarose gel electrophoresis in presence of Cu2+ and DMSO
Escherichia coli [6] = test: Induction of Escherichia coli pBR322 DNA cleavage at 0.06 mM after 5 hrs by agarose gel electrophoresis in presence of Cu2+ and TMP
DNA [7] = test: Binding affinity to calf thymus DNA in presence of Cu2+; assay type: nucleic-acid assay; details: Bos taurus
Escherichia coli [8] = test: Induction of Escherichia coli pBR322 DNA cleavage assessed as maximal catalytic rate constant at 0.12 mM by agarose gel electrophoresis in presence of Cu2+
Escherichia coli [9] = test: Induction of Escherichia coli pBR322 DNA cleavage at 0.08 mM after 5 hrs by agarose gel electrophoresis
Escherichia coli [10] = test: Induction of Escherichia coli pBR322 DNA cleavage at 0.01 to 0.08 mM after 5 hrs by agarose gel electrophoresis in presence of Cu2+
Escherichia coli [11] = test: Induction of Escherichia coli pBR322 DNA cleavage at Cu2+ to compound ratio >= 1 after 5 hrs by agarose gel electrophoresis
Escherichia coli [12] = test: Induction of Escherichia coli pBR322 DNA cleavage assessed as conversion of supercoiled form into linear form after 5 hrs by agarose gel electrophoresis in presence of Cu2+
Escherichia coli [13] = test: Induction of Escherichia coli pBR322 DNA cleavage assessed as conversion of supercoiled form into open circular form after 5 hrs by agarose gel electrophoresis in presence of Ni2+
Escherichia coli [14] = test: Induction of Escherichia coli pBR322 DNA cleavage assessed as conversion of supercoiled form into open circular form after 5 hrs by agarose gel electrophoresis in presence of Mn2+
Escherichia coli [15] = test: Induction of Escherichia coli pBR322 DNA cleavage assessed as conversion of supercoiled form into open circular form after 5 hrs by agarose gel electrophoresis in presence of Zn2+
Escherichia coli [16] = test: Induction of Escherichia coli pBR322 DNA cleavage assessed as conversion of supercoiled form into open circular form after 5 hrs by agarose gel electrophoresis in presence of Mg2+
Escherichia coli [17] = test: Induction of Escherichia coli pBR322 DNA cleavage assessed as conversion of supercoiled form into open circular form after 5 hrs by agarose gel electrophoresis in presence of Co2+

K (DNA [1]): 1.46 ×10³ /M
Activity (Escherichia coli [2]): inactive
SMILES: COCCOCCOCCOCCOc1c(OC)ccc2cc3[n+](cc12)CCc1cc2c(cc1-3)OCO2

K (DNA [1]): 8.99 ×10³ /M
SMILES: COc1ccc2cc3[n+](cc2c1OC)CCc1cc2c(cc1-3)OCO2

Activity (Escherichia coli [3]): inactive
Activity (Escherichia coli [4]): Active
Activity (Escherichia coli [5]): Active
Activity (Escherichia coli [6]): Active
K (DNA [7]): 2.38 ×10⁴ /M
K (DNA [1]): 1.51 ×10⁴ /M
Kmax (Escherichia coli [8]): 125 h⁻¹
Activity (Escherichia coli [9]): inactive
Activity (Escherichia coli [10]): Active
Activity (Escherichia coli [11]): Active
Activity (Escherichia coli [12]): Active
Activity (Escherichia coli [2]): Active
Activity (Escherichia coli [13]): inactive
Activity (Escherichia coli [14]): inactive
Activity (Escherichia coli [15]): inactive
Activity (Escherichia coli [16]): inactive
Activity (Escherichia coli [17]): inactive
SMILES: COc1ccc2cc3[n+](cc2c1OCCOCCOCCOCCOc1c(OC)ccc2cc4[n+](cc12)CCc1cc2c(cc1-4)OCO2)CCc1cc2c(cc1-3)OCO2

SMILES: COc1ccc2cc3[n+](cc2c1OCCCOc1c(OC)ccc2cc4[n+](cc12)CCc1cc2c(cc1-4)OCO2)CCc1cc2c(cc1-3)OCO2
K (DNA [1]): 1.15 ×10⁵ /M
Activity (Escherichia coli [2]): inactive
